Earlier results on 1 compound are cited in patent publication US20250122241A1, “CYCLIC PEPTIDE IMMUNOMODULATORS” (BRISTOL-MYERS SQUIBB COMPANY, priority 2021, published 2025).

For the data set the following is noted: oral administration; extensive first-pass metabolism in the liver.

With `CCCC1O[C@@H]2C[C@H]3[C@@H]4CCC5=CC(=O)C=C[C@]5(C)[C@H]4[C@@H](O)C[C@]3(C)[C@]2(C(=O)CO)O1` (stereo partly shown) [budesonide], the bioavailability entry is “about 10%”.
